Results: PMC8222276 (Communications Biology, 2021)

Columns and labels:
[1] = molecular target: T1, AM1 receptor (CLR-RAMP2) in HUAECs (Homo sapiens, UniProt O60895+Q16602); experiment: mobilisation of Ca2+i in HUAECs; type: cell-based
T1 construct: host or cells: primary HUAECs
Description: All cell lines were plated at 20,000 cells/well on 96-well black clear-bottom plates (Costar, UK) 24 h before the experiment. […] Cells were then washed twice with calcium-free HBSS, then were left in 100 μl calcium-free HBSS for the duration of the assay. […] Data was normalised to the response seen with 10 μM Ionomycin.
(§1) All sample sizes were determined, and data analysed, in accordance with the guidelines described by Curtis M et al.[65]. All experiments were appropriately controlled using ‘system pathway’ agonists. If any of these pathway controls generated inappropriate responses, then the entire data set was removed from analysis. […] Data analysis for cAMP accumulation, Ca^2+i mobilisation, NO accumulation, pERK1/2 activation, and cell proliferation assays were performed in GraphPad Prism 8.4 (GraphPad Software, San Diego). Data were fitted to obtain concentration–response curves using either the three-parameter logistic equation using to obtain values of Emax and pEC50 or the operational model of agonism. Statistical differences were analysed using one-way ANOVA followed by Dunnett’s post-hoc (for comparisons amongst more than two groups) or unpaired Student’s t test with Welch’s correction (for comparison between two groups). To account for the day-to-day variation experienced from the cultured cells, we used the maximal level of cAMP accumulation from cells in response to 100 μM forskolin stimulation was used as a reference, 10 μM ionomycin for Ca^2+i assays, 10 μM phorbol 12-myristate 13-acetate (PMA) for pERK1/2 activation, 10 μM acetylcholine for NO production and 10 μM VEGF for cell proliferation. […] Where appropriate the operational model for receptor agonism[27] was used to obtain efficacy (τ) and equilibrium disassociation constant (KA) values. In both cases, this normalisation removes the variation due to differences in days but retains the variance for control values. The means of individual experiments were combined to generate the curves shown. Having obtained values for τ and KA these were then used to quantify signalling bias as the change in Log(τ/KA)[19],[28]. Error for this composite measure was propagated by applying Eq. 1.1 PooledSEM=(SEMA)^2+(SEMB)^2 Where, SEMA and SEMB are the standard error of measurement A and B.
(1 picture or pasted object on this page, not shown here)

[2] = molecular target: T1, AM1 receptor (CLR-RAMP2) in HUAECs; experiment: cAMP accumulation in HUAECs; type: cell-based
Description: (§2) All primary cell lines were cultured as above. On the day of the experiment media was removed and cells washed with PBS, before being dissociated with Trypsin-EDTA 0.05% (Gibco, UK) and then resuspended in PBS/BSA (0.1%) (Sigma, UK). Cells were immediately plated for use in cAMP assay as per the manufacturer’s instructions, reagents used were provided by the LANCE® cAMP detection assay kit (PerkinElmer, Boston, MA, USA), in 384 well optiplates (PerkinElmer (Boston, MA, USA)) at 2000 cells/well in 5 μl aliquots. […] Cells were incubated with compound for 30 min prior to adding detection buffer[28],[60]. Plates were incubated for a further 60 min (room temperature) and then read on a plate reader (Mithras LB 940 microplate reader (Berthold technologies, Germany)). All responses were normalised to 100μM forskolin (Tocris, UK). Antagonist studies were performed in the same way through co-stimulation of the relevant concentration. Alongside control-treated cell. Experiments with PTX (Sigma, UK) required pretreatment (16 h) prior to assays.
as §1, with “The means of individual experiments were combined to generate the curves shown.” left out, “Error for this composite measure was propagated by applying Eq. 1.1 PooledSEM=(SEMA)^2+(SEMB)^2 Where, SEMA and SEMB are the standard error of measurement A and B.” left out

[3] = molecular target: T2, AM1 receptor (CLR-RAMP2) in HUVECs (Homo sapiens, UniProt O60895+Q16602); experiment: signalling bias analysis (operational model) in HUVECs; details: HUVEC; ΔΔLog(τ/KA), reference AM and cAMP
T2 construct: HUVECs specifically express the AM1 receptor alone; host or cells: primary HUVECs
T2 sequence (Q16602 23-461): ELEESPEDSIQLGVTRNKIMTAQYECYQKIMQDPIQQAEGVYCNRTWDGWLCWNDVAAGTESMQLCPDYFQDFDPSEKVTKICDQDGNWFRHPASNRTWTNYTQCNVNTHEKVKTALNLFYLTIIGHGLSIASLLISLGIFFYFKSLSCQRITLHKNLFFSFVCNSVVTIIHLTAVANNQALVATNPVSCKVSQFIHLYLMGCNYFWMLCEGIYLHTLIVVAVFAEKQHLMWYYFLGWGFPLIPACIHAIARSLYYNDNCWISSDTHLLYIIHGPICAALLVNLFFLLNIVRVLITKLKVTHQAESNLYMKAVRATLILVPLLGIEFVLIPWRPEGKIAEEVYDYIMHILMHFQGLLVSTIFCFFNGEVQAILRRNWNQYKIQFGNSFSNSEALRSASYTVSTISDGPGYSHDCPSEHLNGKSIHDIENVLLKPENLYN
T2 sequence (O60895 43-175): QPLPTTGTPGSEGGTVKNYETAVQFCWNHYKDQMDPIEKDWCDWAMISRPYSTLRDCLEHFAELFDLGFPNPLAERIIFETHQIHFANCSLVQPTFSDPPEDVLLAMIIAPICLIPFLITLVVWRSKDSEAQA
Description: All sample sizes were determined, and data analysed, in accordance with the guidelines described by Curtis M et al.[65]. All experiments were appropriately controlled using ‘system pathway’ agonists. If any of these pathway controls generated inappropriate responses, then the entire data set was removed from analysis. […] Data analysis for cAMP accumulation, Ca^2+i mobilisation, NO accumulation, pERK1/2 activation, and cell proliferation assays were performed in GraphPad Prism 8.4 (GraphPad Software, San Diego). Data were fitted to obtain concentration–response curves using either the three-parameter logistic equation using to obtain values of Emax and pEC50 or the operational model of agonism. Statistical differences were analysed using one-way ANOVA followed by Dunnett’s post-hoc (for comparisons amongst more than two groups) or unpaired Student’s t test with Welch’s correction (for comparison between two groups). […] Having obtained values for τ and KA these were then used to quantify signalling bias as the change in Log(τ/KA)[19],[28]. […]

[4] = molecular target: T3, CGRP receptor (CLR-RAMP1) in RAMP1-HUVECs (Homo sapiens, UniProt O60894+Q16602); experiment: cAMP accumulation in RAMP1-HUVECs; type: cell-based; details: RAMP1-HUVEC, 30 min, relative to 100 μM forskolin, mean ± SEM
T3 construct: biased agonism at the endogenous CLR in a physiological system; the open reading frame of RAMP1 into our HUVEC∆RAMP2 cell line; host or cells: HUVEC-∆RAMP2 (CRISPR-Cas9 RAMP2 knockout pool), lentiviral transduction, blasticidin selection
T3 sequence (Q16602 23-461): as the sequence (Q16602 23-461) above
T3 sequence (O60894 27-148): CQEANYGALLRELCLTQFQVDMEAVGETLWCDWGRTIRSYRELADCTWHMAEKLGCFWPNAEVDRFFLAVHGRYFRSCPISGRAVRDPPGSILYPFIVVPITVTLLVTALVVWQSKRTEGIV
Description: Data are analysed using a three-parameter non-linear regression curve or the operational model of receptor agonism. g–h Signalling bias plots were calculated as ∆Log(τ/KA) (g) or ∆∆Log(τ/KA) (h) for each agonist and for each signalling pathway. […] All data represent mean ± SEM for n repeats.
as §2, with “Experiments with PTX (Sigma, UK) required pretreatment (16 h) prior to assays.” left out
All sample sizes were determined, and data analysed, in accordance with the guidelines described by Curtis M et al.[65]. […]

[5] = Ca2+i, HUAEC, operational model, mean ± SEM
[6] = cAMP, HUAEC, operational model, mean ± SEM

T1 sequence (Q16602 23-461): as the sequence (Q16602 23-461) above
T1 sequence (O60895 43-175): as the sequence (O60895 43-175) above

## CSCC[C@H](NC(=O)[C@H](CC(C)C)NC(=O)[C@H](CCC(N)=O)NC(=O)[C@H](Cc1c[nH]c2ccccc12)NC(=O)[C@H](CC(C)C)NC(=O)[C@H](CCCNC(=N)N)NC(=O)[C@H](Cc1c[nH]cn1)NC(=O)[C@H](CO)NC(=O)[C@H](CC(C)C)NC(=O)[C@H](CC(N)=O)NC(=O)[C@H](CCC(N)=O)NC(=O)[C@@H](NC(=O)[C@H](CCC(N)=O)NC(=O)[C@@H]1CSSC[C@H](NC(=O)CNC(=O)[C@@H](NC(=O)[C@H](CCCNC(=N)N)NC(=O)[C@H](CC(C)C)NC(=O)[C@H](CC(C)C)NC(=O)[C@H](CCC(N)=O)NC(=O)[C@H](C)NC(=O)[C@H](CCC(N)=O)NC(=O)[C@@H](N)[C@@H](C)O)C(C)C)C(=O)N[C@@H](C(C)C)C(=O)N[C@@H](CC(C)C)C(=O)NCC(=O)N[C@@H]([C@@H](C)O)C(=O)N1)C(C)C)C(=O)NCC(=O)N1CCC[C@H]1C(=O)N[C@@H](C)C(=O)NCC(=O)N[C@@H](CCCNC(=N)N)C(=O)N[C@@H](CCC(N)=O)C(=O)N[C@@H](CC(=O)O)C(=O)N[C@@H](CO)C(=O)N[C@@H](C)C(=O)N1CCC[C@H]1C(=O)N[C@H](C(=O)N[C@@H](CC(=O)O)C(=O)N1CCC[C@H]1C(=O)N[C@@H](CO)C(=O)N[C@@H](CO)C(=O)N1CCC[C@H]1C(=O)N[C@@H](Cc1c[nH]cn1)C(=O)N[C@@H](CO)C(=O)N[C@@H](Cc1ccc(O)cc1)C(N)=O)C(C)C [AM2, adrenomedullin 2]
[1]
  Emax: 50.1 ± 3.22%
[1]; Ca2+i, HUAEC, calculated from Table S1
  Transducer coefficient Log(τ/KA): 7.60±0.14
[1]; [5]
  logτ: -0.01±0.05
  pKA: 7.61±0.13
[2]
  Emax: 17.5 ± 1.21%
[2]; cAMP, HUAEC, calculated from Table S1
  Transducer coefficient Log(τ/KA): 6.03±0.22
[2]; [6]
  logτ: -0.75±0.05
  pKA: 6.78±0.21
[3]
  agonist bias: biased towards Ca^2+i mobilisation and NO production

## CC[C@H](C)[C@H](NC(=O)[C@H](CCC(N)=O)NC(=O)[C@H](Cc1c[nH]cn1)NC(=O)[C@H](C)NC(=O)[C@H](CC(C)C)NC(=O)[C@H](CCCCN)NC(=O)[C@H](CCC(N)=O)NC(=O)[C@@H](NC(=O)[C@@H](NC(=O)[C@@H]1CSSC[C@H](NC(=O)CNC(=O)[C@H](Cc2ccccc2)NC(=O)[C@H](CO)NC(=O)[C@H](CCCNC(=N)N)NC(=O)[C@H](CC(C)C)NC(=O)CNC(=O)[C@H](CCC(N)=O)NC(=O)[C@H](Cc2ccccc2)NC(=O)[C@H](CC(N)=O)NC(=O)[C@H](CC(N)=O)NC(=O)[C@H](CCSC)NC(=O)[C@H](CO)NC(=O)[C@H](CCC(N)=O)NC(=O)[C@H](CCCNC(=N)N)NC(=O)[C@@H](N)Cc2ccc(O)cc2)C(=O)N[C@@H](CCCNC(=N)N)C(=O)N[C@@H](Cc2ccccc2)C(=O)NCC(=O)N[C@@H]([C@@H](C)O)C(=O)N1)[C@@H](C)O)C(C)C)C(=O)N[C@@H](Cc1ccc(O)cc1)C(=O)N[C@@H](CCC(N)=O)C(=O)N[C@@H](Cc1ccccc1)C(=O)N[C@H](C(=O)N[C@@H](CC(=O)O)C(=O)N[C@@H](CCCCN)C(=O)N[C@@H](CC(=O)O)C(=O)N[C@@H](CCCCN)C(=O)N[C@@H](CC(=O)O)C(=O)N[C@@H](CC(N)=O)C(=O)N[C@H](C(=O)N[C@@H](C)C(=O)N1CCC[C@H]1C(=O)N[C@@H](CCCNC(=N)N)C(=O)N[C@@H](CO)C(=O)N[C@@H](CCCCN)C(=O)N[C@H](C(=O)N[C@@H](CO)C(=O)N1CCC[C@H]1C(=O)N[C@@H](CCC(N)=O)C(=O)NCC(=O)N[C@@H](Cc1ccc(O)cc1)C(N)=O)[C@@H](C)CC)C(C)C)[C@@H](C)O [AM, adrenomedullin]
[4]
  Emax: 39 ± 2.08%
